pEC50: −log10 of the molar value.
Test system: U937 cells
Assay: EC50 of necroptosis inhibition in U937 cells (TSZ-induced, CellTiter-Glo)
Assay type: cell-based
Conditions: Homo sapiens, U-937; TSZ (hTNF-α, SM-164, Z-VAD-FMK) 20 hours; 10 concentration points; read-out: EC50 intervals of necroptosis inhibition in U937 cells
In short: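 U937 cells pretreated 15 min with compound (10-point, 1:3 series), then necroptosis induced by TSZ (hTNF-α, SM-164, Z-VAD-FMK) for 20 h at 37 °C. Viability measured as ATP by CellTiter-Glo luminescence; inhibition normalised to untreated and TSZ-only wells, EC50 from four-parameter fit.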

| Structure (SMILES) | pEC50 |
| --- | --- |
| C[C@@H](NC(=O)C(=O)N[C@H]1COc2ccc(C#CCN3CCC(=O)CC3)cc2N(C)C1=O)c1ccccc1 [Example 139, N^1-((S)-5-methyl-4-oxo-7-(3-(4-oxopiperidin-1-yl)prop-1-yn-1-yl)-2,3,4,5-tetrahydrobenzo[b][1, 4]oxazepin-3-yl)-N^2-((R)-1-phenylethyl)oxalamide] | > 7.00 |
| CN1C(=O)[C@@H](NC(=O)C(=O)NCCc2ccccc2)COc2ccc(C#CC3CCOCC3)cc21 [Example 21, (S)—N^1-(5-methyl-4-oxo-7-((tetrahydro-2H-pyran-4-yl)ethynyl)-2,3,4,5-tetrahydrobenzo[b][1,4]oxazepin-3-yl)-N^2-phenethyloxalamide] | > 7.00 |
| C[C@@H](NC(=O)C(=O)N[C@H]1COc2ccc(C#CC3(O)COC3)cc2N(C)C1=O)c1ccccc1 [Example 132, N^1-((S)-7-((3-hydroxyoxetan-3-yl)ethynyl)-5-methyl-4-oxo-2,3,4,5-tetrahydrobenzo[b][1,4]oxazepin-3-yl)-N^2-((R)-1-phenylethyl)oxalamide] | > 7.00 |
| C[C@@H](NC(=O)C(=O)N[C@H]1COc2ccc(C#CCN3CCC(O)C3)cc2N(C)C1=O)c1ccccc1 (mixture of isomers) [Example 126, N^1-((3S)-7-(3-(3-hydroxypyrrolidin-1-yl)prop-1-yn-1-yl)-5-methyl-4-oxo-2,3,4,5-tetrahydrobenzo[b][1,4]oxazepin-3-yl)-N^2-((R)-1-phenylethyl)oxalamide] | > 7.00 |
| CN1C(=O)[C@@H](NC(=O)C(=O)NCCc2ccccc2)COc2ccc(C#Cc3ccsc3)cc21 [Example 17, (S)—N^1-(5-methyl-4-oxo-7-(thiophen-3-ylethynyl)-2,3,4,5-tetrahydrobenzo[b][1,4]oxazepin-3-yl)-N^2-phenethyloxalamide] | > 7.00 |
| CN1C(=O)[C@@H](NC(=O)C(=O)NCc2ccccc2)COc2ccc(C#CCn3ccnc3)cc21 [Example 104, (S)—N^1-(7-(3-(1H-imidazol-1-yl)prop-1-yn-1-yl)-5-methyl-4-oxo-2,3,4,5-tetrahydrobenzo[b][1,4]oxazepin-3-yl)-N^2-benzyloxalamide] | > 7.00 |
| CN1C(=O)[C@@H](NC(=O)C(=O)NCCc2cccc(F)c2)COc2ccc(C#CCCO)cc21 [Example 34, (S)—N^1-(3-fluorophenethyl)-N^2-(7-(4-hydroxybut-1-yn-1-yl)-5-methyl-4-oxo-2,3,4,5-tetrahydrobenzo[b][1,4]oxazepin-3-yl)oxalamide] | > 7.00 |
| CN1C(=O)[C@H](NC(=O)C(=O)NCCc2cccc(F)c2)COc2ccc(C#CCCO)cc21 [Example 109, (R)—N^1-(3-fluorophenethyl)-N^2-(7-(4-hydroxybut-1-yn-1-yl)-5-methyl-4-oxo-2,3,4,5-tetrahydrobenzo[b][1,4]oxazepin-3-yl)oxalamide] | > 7.00 |
| CN1C(=O)[C@@H](NC(=O)C(=O)NCc2ccc(F)cc2)COc2ccc(C#CCCO)cc21 [Example 40, (S)—N^1-(4-fluorobenzyl)-N^2-(7-(4-hydroxybut-1-yn-1-yl)-5-methyl-4-oxo-2,3,4,5-tetrahydrobenzo[b][1,4]oxazepin-3-yl)oxalamide] | > 7.00 |
| CN1C(=O)[C@@H](NC(=O)C(=O)NCCc2ccccc2)COc2ccc(C#CC3CN(C=O)C3)cc21 [Example 91, (S)—N^1-(7-((1-formylazetidin-3-yl)ethynyl)-5-methyl-4-oxo-2,3,4,5-tetrahydrobenzo[b][1,4]oxazepin-3-yl)-N^2-phenethyloxalamide] | > 7.00 |
| CN1C(=O)[C@@H](NC(=O)C(=O)NCCc2cccc(F)c2)COc2ccc(C#CCN3CCC(=O)CC3)cc21 [Example 118, (S)—N^1-(3-fluorophenethyl)-N^2-(5-methyl-4-oxo-7-(3-(4-oxopiperidin-1-yl)prop-1-yn-1-yl)-2,3,4,5-tetrahydrobenzo[b][1,4]oxazepin-3-yl)oxalamide] | > 7.00 |
